Data published in PubChem BioAssay (NCI).
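Cultured in 96-well plates, cells were exposed to test compound for 48 hours across five concentrations. TGI: concentration producing complete growth inhibition.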

Key:
Test in all cases: NCI-60 cell line screen, 48 h
ACHN renal = tested on: ACHN renal
CAKI-1 renal = tested on: CAKI-1 renal
EKVX NSCLC = tested on: EKVX NSCLC
HOP-92 NSCLC = tested on: HOP-92 NSCLC
IGROV1 ovarian = tested on: IGROV1 ovarian
K-562 leukemia = tested on: K-562 leukemia
MCF7 breast = tested on: MCF7 breast
MDA-N = tested on: MDA-N
NCI-H23 lung = tested on: NCI-H23 lung
NCI-H460 lung = tested on: NCI-H460 lung
NCI-H522 lung = tested on: NCI-H522 lung
OVCAR-4 ovarian = tested on: OVCAR-4 ovarian
OVCAR-5 ovarian = tested on: OVCAR-5 ovarian
OVCAR-8 ovarian = tested on: OVCAR-8 ovarian
SK-OV-3 ovarian = tested on: SK-OV-3 ovarian
SNB-75 CNS = tested on: SNB-75 CNS
T-47D breast = tested on: T-47D breast
UO-31 renal = tested on: UO-31 renal

| SMILES | TGI (ACHN renal) [µM] | TGI (CAKI-1 renal) [µM] | TGI (EKVX NSCLC) [µM] | TGI (HOP-92 NSCLC) [µM] | TGI (IGROV1 ovarian) [µM] | TGI (K-562 leukemia) [µM] | TGI (MCF7 breast) [µM] | TGI (MDA-N) [µM] | TGI (NCI-H23 lung) [µM] | TGI (NCI-H460 lung) [µM] | TGI (NCI-H522 lung) [µM] | TGI (OVCAR-4 ovarian) [µM] | TGI (OVCAR-5 ovarian) [µM] | TGI (OVCAR-8 ovarian) [µM] | TGI (SK-OV-3 ovarian) [µM] | TGI (SNB-75 CNS) [µM] | TGI (T-47D breast) [µM] | TGI (UO-31 renal) [µM] |
| --- | --- | --- | --- | --- | --- | --- | --- | --- | --- | --- | --- | --- | --- | --- | --- | --- | --- | --- |
| N#Cc1ccccc1NC(=O)C(O)C(O)C(O)C(O)C=O (stereo not given) | > 100 | > 100 | > 100 | > 100 | > 100 | > 100 | > 100 | > 100 | > 100 | > 100 | > 100 | > 100 | > 100 | > 100 | > 100 | > 100 | > 100 | > 100 |
| C[C@]12CC/C(=N\OCCN3CCCC3)C=C1CCC1C2CC[C@@]2(C)C1CC[C@]2(C)O (stereo not given in full) | 50.3 | 24.1 | 34 | 32.3 | 35.9 | 14.2 | > 100 | 6.33 | 35.8 | 16.3 | 8.57 | 82.4 | > 100 | 31.6 | 44.5 | 11.9 | 64 | 24.4 |
| ON[C@@H]1C=C[C@H](n2cnc3c(NC4CC4)ncnc32)C1 | > 100 | > 100 | > 100 | > 100 | > 100 | > 100 | > 100 | > 100 | > 100 | > 100 | > 100 | > 100 | > 100 | > 100 | > 100 | > 100 | > 100 | > 100 |
| COc1cc(C)cc2c1C(=O)C(NC(C)=O)=CC2=O | > 100 | > 100 | > 100 | > 100 | > 100 | > 100 | > 100 | 32.8 | > 100 | > 100 | > 100 | 74.5 | > 100 | > 100 | > 100 | > 100 | > 100 | > 100 |
| O=C(O)C(C1NCCS1)N1C(=O)c2ccccc2C1=O (stereo not given) | > 100 | > 100 | > 100 | > 100 | > 100 | > 100 | > 100 | > 100 | > 100 | > 100 | > 100 | > 100 | > 100 | > 100 | > 100 | > 100 | > 100 | > 100 |
| Cc1ccc2c(n1)C(=O)c1cc(C)c(C)cc1C2=O | > 100 | > 100 | > 100 | > 100 | > 100 | > 100 | > 100 | > 100 | > 100 | > 100 | 56.8 | > 100 | > 100 | > 100 | > 100 | 73 | > 100 | > 100 |
| CC1=NN(c2ccccc2Cl)C2(C1)C(Cl)C(=O)N2c1nc2ccccc2s1 (stereo not given) | > 100 | > 100 | > 100 | > 100 | > 100 | > 100 | > 100 | > 100 | > 100 | > 100 | 35 | > 100 | > 100 | > 100 | > 100 | 89.9 | > 100 | > 100 |
| CC1(C)C2CCC1(C)C(NC(=O)COCCOCC(N)=O)C2 (stereo not given) | > 100 | > 100 | > 100 | > 100 | > 100 | > 100 | > 100 | > 100 | > 100 | > 100 | > 100 | > 100 | > 100 | > 100 | > 100 | > 100 | > 100 | > 100 |
| CCSc1c2cc(OC)ccc2nc2ccc(OC)cc12 | > 87.4 | 45.4 | > 54 | > 100 | > 55 | > 44.1 | > 100 | 21.7 | > 86.1 | 60.4 | > 48.2 | > 75.8 | 78.4 | > 59.2 | > 92.5 | 40.3 | > 69.7 | > 60.7 |
| C=C1C(=O)OC2/C=C(\CO)C3OC3C3OC3(C)CC(OC(=O)/C(=C/C)COC(C)=O)C12 (stereo not given) | 9.68 | 4.67 | 9.58 | 4.35 | 29.5 | > 100 | 20.1 | 13 | 21.7 | 28.4 | 1.2 | 24.1 | 28.7 | 6.22 | 45.7 | 23 | 9.7 | 23.7 |
| CC(C)(C(=O)N(C(=O)N1CCN(c2ccccc2)CC1)S(=O)(=O)c1ccccc1)c1ccc(Cl)cc1 | > 100 | > 100 | 63.1 | 53.6 |  | > 100 | > 100 | > 100 | > 100 | > 100 | 26.3 | > 100 | > 100 | > 100 | > 100 | > 100 | > 100 | 34.3 |
| O=C1Nc2ccccc2C1(O)Cc1ccccn1 (stereo not given) | > 100 | > 100 | > 100 | > 100 | > 100 | > 100 | > 100 | > 100 | > 100 | > 100 | > 100 | > 100 | > 100 | > 100 | > 100 | > 100 | > 100 | > 100 |
